Experimental data as given in patent US10357537B2, “Cyclotides as immunosuppressive agents” (priority 2011, dated 2019).
Read-outs that look alike come from different tables or passages of the source. Bridge positions count the residues as written; N and C are the ends. Peptide text beside a SMILES is read from it.

Experiments:
[1] = test system: CD3 purified T-lymphocytes; assay: Anti-proliferative CFSE assay on magnetic-purified CD3+ lymphocytes; conditions: for IC50: read-out: IC50 (μM) ± STDEV, inhibition of CD3 purified T-lymphocyte proliferation, CD3 purified lymphocytes, anti-CD3/28 mAbs, 72 h
Description: (§1) The anti-proliferative effect of cyclotide mutants/variants was tested according to Example 5. […] Afterwards the cell proliferation was assessed by analysing cell division using flow cytometric-based histogram analysis.

[2] = test system: activated human primary PBMC; assay: Anti-proliferative CFSE cell division assay on anti-CD3/CD28-activated PBMC; conditions: for IC50: read-out: IC50 (μM) ± STDEV, inhibition of PBMC proliferation, PBMCs, anti-CD3/28 mAbs, 72 h, n.a. = not active; for cytotoxicity in PBMC proliferation assay: at 14 μM
Description: Human peripheral blood mononuclear cells (PBMC) were isolated from the blood of healthy adult donors obtained from the Blood Transfusion Centre (University Medical Center, Freiburg, Germany). Venous blood was centrifuged on a LymphoPrep™ gradient (density: 1.077 g/cm^3, 20 min, 500×g, 20° C.; Progen, Heidelberg, Germany). Afterwards cells were washed twice with medium and cell viability and concentration was determined using the trypan blue exclusion test. PBMC were cultured in RPMI 1640 medium supplemented with 10% heat-inactivated fetal calf serum (PAA, Coelbe, Germany), 2 mM L-glutamine, 100 U/mL penicillin and […] (all from Invitrogen, Karlsruhe, Germany). The cells were cultured at 37° C. in a humidified incubator with a 5% CO2/95% air atmosphere. All experiments conducted on human material were approved by the Ethics committee of the University of Freiburg.
(§2) After cultivation, the cells were assessed in bioassays as described in the text.
For cell proliferation and cell division tracking analysis PBMC were harvested and washed twice in cold PBS and resuspended in PBS at a concentration of 5×10^6 cells/mL. Cells were incubated for 10 min at 37° C. with carboxyfluorescein diacetate succinimidyl ester (CFSE; 5 μM: Sigma-Aldrich, Taufkirchen, Germany). The staining reaction was stopped by washing twice with complete medium. Afterwards, the cell division progress was analysed using flow cytometric analysis.
as §1

[3] = test system: activated human primary PBMC
Description: as §2
The levels of apoptosis were determined using the annexin V-FITC apoptosis detection kit (eBioscience, Frankfurt, Germany) according to the manufacturer's instructions. After annexin V staining, propidium iodide solution (PI; eBioscience) was added and the cells were incubated in the dark, followed by a flow cytometric analysis to determine the amount of apoptosis and necrosis. CPT (30 μg/mL) and Triton-X 100 (0.5%) was used as positive controls for apoptosis and necrosis, respectively.
Cellular apoptotic and necrotic hallmarks were measured by using inter-nucleosomal DNA fragmentation (subG1^+ cells) assay and phosphatidylserine surface analysis through a single and combinatory annexin V and propidium iodide staining. This double staining process allowed the discrimination between viable (annexin^−/PI^−), apoptotic (annexin^+/PI^− and annexin^+/PI^+) or necrotic (annexin^−/PI^+) cells.

CC[C@H](C)[C@@H]1NC(=O)[C@@H]2CCCN2C(=O)[C@H](Cc2c[nH]c3ccccc23)NC(=O)[C@H]([C@@H](C)O)NC(=O)[C@@H]2CSSC[C@@H]3NC(=O)[C@H]([C@@H](C)O)NC(=O)[C@H](CCC(=O)O)NC(=O)CNC(=O)[C@@H]4CSSC[C@H](NC(=O)CNC(=O)[C@@H]5CCCN5C(=O)[C@H]([C@@H](C)O)NC(=O)[C@H](CC(N)=O)NC(=O)[C@H](CSSC[C@H](NC1=O)C(=O)N[C@@H]([C@@H](C)O)C(=O)N[C@@H](CCCNC(=N)N)C(=O)N[C@@H](CC(=O)O)C(=O)NCC(=O)N[C@@H](CC(C)C)C(=O)N1CCC[C@H]1C(=O)N[C@@H](C(C)C)C(=O)N4)NC(=O)[C@H]([C@@H](C)O)NC(=O)CNC(=O)CNC(=O)[C@H](Cc1ccccc1)NC3=O)C(=O)N[C@@H](CO)C(=O)N2 [Kalata B2] (cyclo(CFGGTCNTPGCSCTWPICTRDGLPVCGET); disulfide 1-13, 6-18, 11-26)
IC50 [1]: 0.6 ± 0.02 µM | IC50 ([2]; cyclotides 1.8-14 μM): 0.2 ± 0.1 µM

CC(C)C[C@@H]1NC(=O)[C@H](CCCCN)NC(=O)[C@H](CC(N)=O)NC(=O)[C@H](CCCNC(=N)N)NC(=O)[C@H]([C@@H](C)O)NC(=O)[C@@H]2CSSC[C@@H]3NC(=O)[C@H]([C@@H](C)O)NC(=O)CNC(=O)CNC(=O)[C@H](C(C)C)NC(=O)[C@@H]4CSSC[C@H](NC(=O)[C@H](CCCCN)NC(=O)[C@H](CSSC[C@H](NC(=O)[C@H](C(C)C)NC(=O)[C@@H]5CCCN5C1=O)C(=O)NCC(=O)N[C@@H](CCC(=O)O)C(=O)N[C@@H]([C@@H](C)O)C(=O)N4)NC(=O)CNC(=O)[C@@H]1CCCN1C(=O)[C@H]([C@@H](C)O)NC(=O)[C@H](CC(N)=O)NC3=O)C(=O)N[C@@H](CO)C(=O)N[C@@H](Cc1c[nH]c3ccccc13)C(=O)N1CCC[C@H]1C(=O)N[C@@H](C(C)C)C(=O)N2 [T20K, G1K, Kalata T20K, G1K] (cyclo(CGETCVGGTCNTPGCKCSWPVCTRNKLPV); disulfide 1-15, 5-17, 10-22)
cytotoxicity in CD3 purified lymphocyte proliferation assay ([1]; at 14 μM): (cytotoxic) | IC50 [1]: 1.1 ± 0.7 µM | cytotoxicity in PBMC proliferation assay [2]: (cytotoxic) | cytotoxicity in PBMC proliferation assay ([2]; listed as T20K+G1K): cytotoxic

CC[C@@H](C)[C@H]1NC(=O)[C@H]2CCCN2C(=O)[C@@H](Cc2c[nH]c3ccccc23)NC(=O)[C@@H]([C@H](C)O)NC(=O)[C@H]2CSSC[C@H]3NC(=O)[C@@H]([C@H](C)O)NC(=O)[C@@H](CCC(=O)O)NC(=O)CNC(=O)[C@H]4CSSC[C@@H](NC(=O)CNC(=O)[C@H]5CCCN5C(=O)[C@@H]([C@H](C)O)NC(=O)[C@@H](CC(N)=O)NC(=O)[C@@H](CSSC[C@@H](NC1=O)C(=O)N[C@H]([C@H](C)O)C(=O)N[C@H](CCCNC(=N)N)C(=O)N[C@H](CC(=O)O)C(=O)NCC(=O)N[C@H](CC(C)C)C(=O)N1CCC[C@@H]1C(=O)N[C@H](C(C)C)C(=O)N4)NC(=O)[C@@H]([C@H](C)O)NC(=O)CNC(=O)CNC(=O)[C@@H](Cc1ccccc1)NC3=O)C(=O)N[C@H](CO)C(=O)N2 [all-D kalata B2, D-kalataB2]
IC50 [1]: 2.9 ± 0.4 µM | IC50 ([2]; cyclotides 1.8-14 μM): 2.3 ± 0.8 µM

CC[C@H](C)[C@H](NC(=O)CN)C(=O)NCC(=O)N[C@@H](C)C(=O)N[C@H](C(=O)N[C@@H](CC(C)C)C(=O)N[C@@H](CCCCN)C(=O)N[C@H](C(=O)N[C@@H](CC(C)C)C(=O)N[C@H](C(=O)N[C@H](C(=O)NCC(=O)N[C@@H](CC(C)C)C(=O)N1CCC[C@H]1C(=O)N[C@@H](C)C(=O)N[C@@H](CC(C)C)C(=O)N[C@H](C(=O)N[C@@H](CO)C(=O)N[C@@H](Cc1c[nH]c2ccccc12)C(=O)N[C@H](C(=O)N[C@@H](CCCCN)C(=O)N[C@@H](CCCNC(=N)N)C(=O)N[C@@H](CCCCN)C(=O)N[C@@H](CCCNC(=N)N)C(=O)N[C@@H](CCC(N)=O)C(=O)N[C@@H](CCC(N)=O)C(N)=O)[C@@H](C)CC)[C@@H](C)CC)[C@@H](C)O)[C@@H](C)O)C(C)C)C(C)C [melittin]
cell division / proliferation of activated PBMC (in words) ([2]; CFSE, flow cytometry, extract 50-100 μg/mL, cyclotides 1.8-14 μM, melittin 0.05-1.6 μM): decrease of proliferating PBMC at 1.6 μM | induction of necrosis ([3]; kalata B1 14 μM vs untreated control, Triton-X 100, melittin high concentrations): slight effect on necrosis induction at high concentrations | induction of apoptosis ([3]; kalata B1 1.8-14 μM, CPT 30 μg/mL, melittin up to 1.6 μM): mainly due to the induction of apoptosis

Triton-X 100
induction of necrosis [3]: significantly increased the fractions of these cells
